We go through four compounds from patent US7456154B2 (priority 2001, dated 2008).

Data set [1] deals with EAMG rats. In words: Electromyography: CMAP ratio under repetitive 3 Hz nerve stimulation in EAMG rats. Format: in vivo, rat. To be noted: for Effect on CMAP decline / muscle function in EAMG rats: comparable amounts, Table 1; for CMAP ratio (5th vs. 1st amplitude): average ± SEM; for Effect of oral administration on CMAP decline: oral gavage, 1000 μg/kg pyridostigmine, CMAP 1, 5, 24 h.

A further data set deals with AChE-R mRNA. In words: In situ hybridization of AChE-R mRNA in rat muscle. The data set is classed as in vivo. To be noted: healthy and EAMG rats. As for the experimental part:
In situ hybridization: Tissues were fixed in 4% paraformaldehyde and cut into 7 μm paraffin embedded sections. Spinal cord sections were deparaffinized, rehydrated using serial ethanol dilutions and permeabilized with proteinase K (10 μg/ml at room temp.). Slides were exposed to 5′ biotinylated, fully 2′-oxymethylated AChE-R or AChE-S-specific 50-mer cRNA probes complementary to human ACHE pseudo-intron 4 or exon 6, respectively [Grisaru et al. (2001) id ibid.]. Hybridization was performed overnight at 52° C. in hybridization mixture containing 10 μg/ml probe, 50 μg/ml yeast tRNA, 50 μg/ml heparin and 50% formamide in 375 mM Na chloride, 37.5 mM Na citrate, pH 4.5. For monkey sections, the probe was constructed according to the human AChE-R sequence; for rat sections, according to the mouse sequence. Slides were washed to remove non-hybridized probe, blocked with 1% skim milk containing 0.01% Tween-20 and 2 mM levamisole, an alkaline phosphatase inhibitor used to suppress non-specific staining and incubate with streptavidin-alkaline phosphatase (Amersham Pharmacia). Fast Red™ substrate (Roche Diagnostics) was used for detection. DAPI staining (Sigma Chemical Co., St. Louis, Mo., USA) served to visualize nuclei. Microscope images were analyzed with Image Pro Plus 4.0 (Media Cybernetics) software. […]

Data set [2] has as its system EAMG rats. In words: Repeated daily treatment of EAMG rats (5 days and 1 month): survival, body weight, status. The data set is classed as in vivo, rat. The source says:
As shown in Example 5, unlike anti-cholinesterases, rEN101 afforded long-term maintenance of stable CMAP. This further enabled the inventors to test whether the cholinergic imbalance contributes to the physiological deterioration that is characteristic of EAMG. Rats were first treated with rEN101 once a day for 5 days, CMAPs being determined prior to each treatment. Both the efficacy of rEN101 in retrieving normal CMAP and its capacity to reduce the inter-animal variability in CMAP values reached similar levels to those of pyridostigmine (FIGS. 11A and 11B). However, the onset of response to pyridostigmine was more rapid (Table 1), while that observed with rEN101 was longer-lasting. Daily oral or i.v administration of rEN101 stabilized CMAPs over the entire course of treatment (FIG. 11B). In contrast, the effect of pyridostigmine wore off within several hours, causing pronounced fluctuations in muscle status (Table 1 and FIG. 11). Among the animals treated daily with pyridostigmine, 5 out of 6 died within the 5 day experimental course. In contrast, 6 out of 8 animals treated once-a-day with rEN101 via o.g. survived the full 5 day period. This conspicuous difference might reflect the susceptibility of EAMG rats to repeated anesthesia and CMAP measurements. In order to avoid these additional stresses and evaluate the effect of the antisense treatment on EAMG pathophysiology, the inventors subjected groups of moderately sick animals to 1 month of daily oral treatment with minimal interference. […] One way repeated measures ANOVA yielded P<0.05 for all other measures (AS vs. other treatments at 4 weeks). The effect of rEN101 on clinical symptoms was also corroborated by body weight changes. Rats treated with saline and Mestinon treated groups lost 13.5 and 11 g/animal, respectively, whereas animals treated with rEN101 gained, on average, 13 g during the treatment period. Thus, daily rEN101 administration promoted long-term change in the course of EAMG in rats with moderate to severe symptoms, under the same conditions in which untreated or pyridostigmine-treated animals deteriorated.

[3] abbreviates: intravenous, EAMG rats, 0 h, 50 μg/Kg.
Setting [4] is: intravenous, EAMG rats, 1 h, 50 μg/Kg.
[5] abbreviates: intravenous, EAMG rats, 5 h, 50 μg/Kg.
[6] abbreviates: intravenous, EAMG rats, 24 h, 50 μg/Kg.
The mark [7] stands for this setting: oral, EAMG rats, 0 h, 50 μg/Kg oligonucleotide, 1000 μg/Kg pyridostigmine.
Where [8] appears, read: oral, EAMG rats, 1 h, 50 μg/Kg oligonucleotide, 1000 μg/Kg pyridostigmine.
[9] abbreviates: oral, EAMG rats, 5 h, 50 μg/Kg oligonucleotide, 1000 μg/Kg pyridostigmine.
The mark [10] stands for this setting: oral, EAMG rats, 24 h, 50 μg/Kg oligonucleotide, 1000 μg/Kg pyridostigmine.

On to “5′-GGAGAAGGAGGAGGAGAGGG-3′ (chemistry not given here) [r-invEN102, reference compound]”, for which the “Effect on CMAP decline / muscle function in EAMG rats” value with EAMG rats [1] is “did not improve muscle function”. Moreover, the “CMAP ratio (5th vs. 1st amplitude)” value stood at 0.89 ± 0.02 in the data set on EAMG rats [1] (setting [3]); 0.89 ± 0.03 with EAMG rats [1] (setting [4]); 0.89 ± 0.02 with EAMG rats [1] (setting [5]); 0.90 ± 0.02 with EAMG rats [1] (setting [6]); 0.78 ± 0.06 with EAMG rats [1] (setting [7]); 0.86 ± 0.05 in the data set on EAMG rats [1] (setting [8]). Also, the entries for the “CMAP ratio (5th vs. 1st amplitude)” value in the data set on EAMG rats [1] (setting [9]) and in the data set with EAMG rats [1] (setting [10]) were 0.86 ± 0.05 and 0.81 ± 0.08, respectively. Moreover, the “Effect of oral administration on CMAP decline” value (shortened to “Effect of oral administration”) with EAMG rats [1] (50 μg/Kg oligonucleotide) is reported as “had no significant effect”. Further, in the data set on AChE-R mRNA, the “AChE-R mRNA labeling in muscle” value is on record as “unaffected”.

In the case of 5′-GGGAGAGGAGGAGGAAGAGG-3′ [rEN102], the “Effect on CMAP decline / muscle function in EAMG rats” value in the data set on EAMG rats [1] is “induced similar rectification of CMAP decline”. The “CMAP ratio (5th vs. 1st amplitude)” value in the data set on EAMG rats [1] (setting [3]) is listed as 0.85 ± 0.06; in the data set with EAMG rats [1] (setting [4]), 1.04 ± 0.01; in the data set with EAMG rats [1] (setting [5]), 0.98 ± 0.03; in the data set on EAMG rats [1] (setting [6]) it was 1.00 ± 0.01; in the data set with EAMG rats [1] (setting [7]) it was 0.82 ± 0.02; in the data set with EAMG rats [1] (setting [8]), 0.86 ± 0.04. Besides, the “CMAP ratio (5th vs. 1st amplitude)” value in the data set with EAMG rats [1] (setting [9]) is 0.96 ± 0.02; in the data set on EAMG rats [1] (setting [10]), 0.95 ± 0.03. The “Effect of oral administration” value with EAMG rats [1] (50 μg/Kg oligonucleotide) is “active in reversing CMAP decline”.

In the case of `CN(C)C(=O)Oc1cccc([N+](C)(C)C)c1` [neostigmine bromide, reference compound], in the data set with EAMG rats [1] (75 μg/kg i.p., EAMG rats), the CMAP after treatment is reported as 107.4 % of the first evoked potential, the “Duration of effect on CMAP” value is reported as 2 h and the “Onset of effect on CMAP after injection” value was 15 min. Further, in the data set on EAMG rats [1] (75 μg/kg i.p., EAMG rats, untreated 87.6% of first evoked potential), the “CMAP after treatment relative to untreated level” value is “over 120 % of this level”.

For the compound `CN(C)C(=O)Oc1ccc[n+](C)c1` [pyridostigmine, reference compound], the “Effect of oral administration” value in the data set on EAMG rats [1] (50 μg/Kg oligonucleotide) is “restored CMAP for up to several hours”. Besides, the “CMAP ratio (5th vs. 1st amplitude)” value in the data set on EAMG rats [1] (setting [7]) worked out at 0.90 ± 0.01; in the data set with EAMG rats [1] (setting [8]), 0.98 ± 0.01; in the data set on EAMG rats [1] (setting [9]), 0.96 ± 0.02; in the data set with EAMG rats [1] (setting [10]) it was 0.87 ± 0.02. For the same compound, the “CMAP ratio 24 h following single oral administration” value in the data set with EAMG rats [1] (single oral dose, rEN101 50 μg/kg, pyridostigmine 1000 μg/kg) is “returned to the declining baseline”. For the same compound, the “Animals that died within the 5 day experimental course” value with EAMG rats [2] (EAMG rats treated daily, with repeated anesthesia and CMAP measurements) was 5 out of 6. Further, in the data set on EAMG rats [2] (EAMG rats, 1 month daily oral treatment), the “Body weight lost during the treatment period” value is listed as 11 g/animal.
